Where two headings read alike, the source gives them in different places.

For series [1], the target named is ATX enzyme (Homo sapiens (Human), UniProt Q13822). The series can be described thus: ATX enzyme activity inhibition assay. In kind it is biochemical. To be noted: 16:0-LPC substrate, Amplex UltraRed fluorescence. As for the experimental part: The tested compounds were dissolved with dimethyl sulfoxide (DMSO) to prepare 20 mM of stock solutions, the stock solutions were subjected to 4-fold gradient dilutions with DMSO, with the initial concentration of 20 µM and a total of 8 concentration gradients. 20 nL of diluted compound was transferred to a 384-well plate using Echo 550 and 5 µL of ATX enzyme solution formulated with 4 × Tris-HCl reaction buffer to the well, then the 384-well plate was centrifuged at 1000 rpm for 1 min and […] pre-incubated at room temperature for 15 min. Subsequently, 5 µL of 16:0-LPC foumulated with the above 4 × reaction buffer and 10 µL of assay solution containng 2 × Amplex UltraRed reagent, choline oxidase and horseradish peroxidase (HRP) foumulated with the same reaction buffer were added to each well, then the 384-well plate was centrifugated at 1000 rpm for 1 min. The fluorescence signals were read at an excitation wavelength of 530 nm and an emission wavelength of 590 nm by Synergy 2 microplate reader. The inhibition rate of the compound against enzyme reaction was calculated according to the fluorescence intensity ratio, and IC50 of the compound was analysed and calculated by GraphPad Prism 5 software.

For series [2], the target named is CYP3A4 (Homo sapiens (Human), UniProt P08684). The series can be described thus: 3A4 subtype of CYP450 enzyme time-dependent inhibition assay (IC50 shift). In kind it is in vitro ADME. The following applies: probe testosterone, 50 µM; 30 min pre-incubation with vs without NADPH, testosterone substrate, human liver microsomes. As to the method: The probe substrate was testosterone at a concentration of 50 µM. The reaction was terminated after incubation for 10 min. The IC50 of the compound against enzyme was calculated by measuring the relative yield of metabolite, and the IC50 shift was calculated from the IC50 results of the groups pre-incubated with and without addition of NADPH.
In general terms: Liver microsomes are vesicles of endoplasmic reticulum, rich in cytochrome P450 enzymes.

Series [3] is described as follows: Rat pharmacokinetic study. To be noted: for F: PO 10 mg/kg vs IV 2 mg/kg; for AUC(0-inf) / AUC(0-t) / Cmax / half-life / Tmax: SD, plasma; for half-life: read-out: t½ (converted). In kind it is in vivo, SD rat. As to the method:
SD rat pharmacokinetic study was performed on several compounds in Examples of the present disclosure through a single intravenous injection (IV, at a dose of 2 mg/kg) and a single oral administration (PO, at a dose of 10 mg/kg), and blood samples were taken before administration and 5 min, 15 min, 30 min, 1 h, 2 h, 4 h, 8 h, 12 h and 24 h after administration, respectively, to determine the plasma concentration of the compound for assay. The pharmacokinetic data of control compound and the compounds in Examples 17, 26, 28 and 29 of the present disclosure in rat plasma are shown in Tables 4-8.

Series [4] addresses hERG potassium channel (Homo sapiens (Human), UniProt Q12809). Kind of series: hERG inhibition assay (manual whole-cell patch clamp). The series is classed as cell-based. The following applies: hERG tail current, stable transfected cell line. As to the method:
Rapid activation of human delayed rectifier potassium current (IKr) is mainly mediated by hERG ion channel and participates in repolarization of human cardiomyocytes. Blocking this current with drugs will lead to QT interval prolongation syndrome in clinical practice, which will easily induce acute arrhythmia and even sudden death.
Experimental method: a whole-cell patch clamp technique was used to record hERG current. The cell suspension was added to a small petri dish and placed on an inverted microscope stage. After adherence, the cells were perfused with extracellular fluid at a recommended flow rate of 1-2 mL/min. The glass microelectrode was drawn by a microelectrode drawing instrument in two steps, and the resistance thereof after filling the electrode interior liquid was 2-5 MΩ. After the whole-cell recording mode was set up, the clamping potential was maintained at -80 mV. The depolarization voltage was applied to +60 mV for 850 ms, and then repolarized to -50 mV for 1275 ms to induce hERG tail current. Such a set of pulse programming was repeated every 15 seconds throughout the experiment. After the current was stable, the drug was administered by extracellular continuous perfusion from low concentration to high concentration. Starting from low concentration, perfusion continued until the drug effect was stable, then perfusion at the next concentration was performed. In this experiment, the blocking effect on hERG tail current was tested for the test objects at different concentrations and the positive control (N ≥ 2). Then, stimulus generation and signal acquisition were carried out by PatchMaster software; and a signal was amplified with a patch clamp amplifier. FitMaster, EXCEL, Graphpad Prism, SPSS 21.0, etc. were used for further data analysis and curve fitting. In data processing, when determining the blocking effect on hERG, the peak and baseline of tail current were calibrated. The inhibition rate (IR) of tail current was used to express the effect of the compounds at different concentrations.
IR = 100% × (peak of tail current before administration - peak of tail current after administration)/peak of tail current before administration.
IC50 was obtained by fitting the Hill equation (if applicable), if the maximum inhibition rate of the test object at all concentrations was less than 50%, then IC50 was not calculated. [00500]
For orientation: The hERG channel carries a current that helps repolarise heart muscle cells.

The test system of series [5] is Chinese hamster ovary cells (CHO-WBL). Kind of series: In vitro micronucleus assay with Chinese hamster ovary cells. As for the experimental part: In the major micronucleus assay, CHO-WBL cells were exposed to at least 3 concentrations of the test object, while vehicle control group and positive control group were set up, with 2 replicated wells for each dose group. In inactivated test system, the administration lasted for 3 and 24 hours, and in S9 activated test system, the exposure to the test object lasted for 3 hours.
When choosing the highest dose for micronucleus frequency assay, the cytotoxicity of dose group of the test object should not substantially exceed 50% of that of the corresponding vehicle control group.
On the premise that the test is valid, the test results are evaluated according to the following criteria:
If the test object simutaneously meets the following criteria, it can be considered as positive:
A significant increase in micronucleus frequency is observed in one or more concentration groups.
If none of the above three points is met, the test object can be considered as negative.

Chain of CYP3A4 (P08684 whole entry): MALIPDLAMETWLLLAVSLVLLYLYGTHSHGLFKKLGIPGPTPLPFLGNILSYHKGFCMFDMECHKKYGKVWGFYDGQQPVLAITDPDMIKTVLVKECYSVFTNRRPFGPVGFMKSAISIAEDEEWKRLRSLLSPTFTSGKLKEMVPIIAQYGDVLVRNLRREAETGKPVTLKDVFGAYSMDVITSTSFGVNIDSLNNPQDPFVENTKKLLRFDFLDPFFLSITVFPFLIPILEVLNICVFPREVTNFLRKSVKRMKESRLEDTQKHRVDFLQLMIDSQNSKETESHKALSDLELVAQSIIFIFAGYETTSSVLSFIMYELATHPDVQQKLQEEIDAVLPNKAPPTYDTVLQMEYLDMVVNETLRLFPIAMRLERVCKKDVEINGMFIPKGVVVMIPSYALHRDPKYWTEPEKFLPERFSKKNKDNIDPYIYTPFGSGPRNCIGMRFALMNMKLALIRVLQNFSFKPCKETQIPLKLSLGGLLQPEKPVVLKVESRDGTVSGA
Chain of hERG potassium channel (Q12809 whole entry): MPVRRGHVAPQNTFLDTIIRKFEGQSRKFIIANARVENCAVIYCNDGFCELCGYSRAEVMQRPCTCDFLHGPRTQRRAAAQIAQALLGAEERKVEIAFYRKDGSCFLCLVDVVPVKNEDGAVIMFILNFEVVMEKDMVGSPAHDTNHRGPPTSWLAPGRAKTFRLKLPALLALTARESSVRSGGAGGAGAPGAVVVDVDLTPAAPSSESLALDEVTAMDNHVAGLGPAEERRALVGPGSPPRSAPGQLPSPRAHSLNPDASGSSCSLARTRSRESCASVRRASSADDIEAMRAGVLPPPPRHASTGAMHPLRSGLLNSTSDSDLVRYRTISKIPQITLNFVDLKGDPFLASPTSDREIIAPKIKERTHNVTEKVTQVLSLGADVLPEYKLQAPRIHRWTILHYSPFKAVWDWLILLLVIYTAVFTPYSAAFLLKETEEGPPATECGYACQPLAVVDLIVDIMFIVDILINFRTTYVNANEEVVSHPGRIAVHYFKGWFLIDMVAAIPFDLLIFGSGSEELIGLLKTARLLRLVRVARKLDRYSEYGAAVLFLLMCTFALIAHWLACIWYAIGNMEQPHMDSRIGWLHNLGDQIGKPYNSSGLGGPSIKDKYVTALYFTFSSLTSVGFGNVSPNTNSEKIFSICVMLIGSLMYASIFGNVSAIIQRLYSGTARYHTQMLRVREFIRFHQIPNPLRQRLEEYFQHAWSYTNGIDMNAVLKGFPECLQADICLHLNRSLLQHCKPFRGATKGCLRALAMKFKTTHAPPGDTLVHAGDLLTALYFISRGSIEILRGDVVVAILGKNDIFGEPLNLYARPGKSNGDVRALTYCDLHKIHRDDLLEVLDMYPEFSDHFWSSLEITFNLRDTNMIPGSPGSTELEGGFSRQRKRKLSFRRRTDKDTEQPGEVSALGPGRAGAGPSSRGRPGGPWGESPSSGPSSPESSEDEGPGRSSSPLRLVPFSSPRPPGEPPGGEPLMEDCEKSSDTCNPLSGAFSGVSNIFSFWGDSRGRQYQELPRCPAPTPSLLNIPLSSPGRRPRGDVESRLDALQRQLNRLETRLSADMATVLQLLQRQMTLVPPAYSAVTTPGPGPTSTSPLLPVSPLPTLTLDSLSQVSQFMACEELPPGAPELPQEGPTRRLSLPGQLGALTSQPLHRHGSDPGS

One may read the IC50 as the midpoint of a concentration-inhibition curve. For the molecule `CCc1nc2ccc(-c3cnc(CC(=O)N4CC(O)C4)cn3)cn2c1N(C)c1nc(-c2ccc(F)cc2)c(C#N)s1` [Example 4, 2-((2-ethyl-6-(5-(2-(3-hydroxyazetidin-1-yl)-2-oxoethyl)pyrazin-2-yl)imidazo[1,2-a]pyridin-3-yl)(methyl)amino)-4-(4-fluorophenyl)thiazole-5-carbonitrile], in series [1], the IC50 is 21 nM. The IC50 shift at 10 min in series [2] turned out to be 1.04.

As a reminder, the AUC(0-inf) is total exposure, with the tail of the curve extrapolated. A higher AUC(0-inf) goes with high exposure. One may read the AUC(0-t) as exposure summed from dosing to a finite time, without extrapolation to infinity. Higher therefore signals high exposure. As usually defined, the Cmax is the peak of the concentration-time curve. The Tmax is the time from dosing to the highest level. As to `CCN(c1nc(-c2ccc(F)cc2)c(C#N)s1)c1c2nc(-c3cnc(N4CC[C@@H](O)C4)nc3)ccc2nn1CC` [Example 28, (R)-2-(ethyl(2-ethyl-5-(2-(3-hydroxypyrrolidin-1-yl)pyrimidin-5-yl)-2H-pyrazolo[4,3-b]pyridin-3-yl)amino)-4-(4-fluorophenyl)thiazole-5-carbonitrile], in series [1], the IC50 turned out to be 3.8 nM. In addition, in series [3] (IV 2 mg/kg), the Cl_F_pred was determined as 2.33 mL/min/kg, the AUC(0-inf) came to 14100 ng·h/mL, the AUC(0-t) worked out at 13900 ng·h/mL and the peak level (Cmax) was 4380 ng/mL. Further, the half-life in series [3] (IV 2 mg/kg) was 4.1 h. In series [3] (PO 10 mg/kg), the Cl_F_pred is 10 mL/min/kg, the AUC(0-inf) is 18600 ng·h/mL, the AUC(0-t) turned out to be 18000 ng·h/mL and the Cmax was 1720 ng/mL. Further, in series [3] (PO 10 mg/kg), the Tmax is 4 h and the half-life was 4.2 h. This molecule also returned a F in series [3] of 25.9%. Besides, in series [2], the IC50 shift at 10 min came out at 1.28.

In the case of `CCN(c1nc(-c2ccc(F)cc2)c(C#N)s1)c1c2nc(-c3cnc(N4CC[C@H](O)C4)nc3)ccc2nn1CC` [Example 27, (S)-2-(ethyl(2-ethyl-5-(2-(3-hydroxypyrrolidin-1-yl)pyrimidin-5-yl)-2H-pyrazolo[4,3-b]pyridin-3-yl)amino)-4-(4-fluorophenyl)thiazole-5-carbonitrile], the IC50 in series [1] is 4.6 nM; in series [4], greater than 30000 nM. For the same molecule, in series [2], the IC50 shift at 10 min was determined as 0.63.

Take `CCc1nc2ccc(-c3ccc(CC(=O)N4CC(O)C4)nc3C)cn2c1N(C)c1nc(-c2ccc(F)cc2)c(C#N)s1` [Example 6, 2-((2-ethyl-6-(6-(2-(3-hydroxyazetidin-1-yl)-2-oxoethyl)-2-methylpyridin-3-yl)imidazo[1,2-a]pyridin-3-yl)(methyl)amino)-4-(4-fluorophenyl)thiazole-5-carbonitrile]: the IC50 in series [1] was 29 nM.

As for `CCc1nc2ccc(-c3cnc(C(=O)N4CC(O)C4)cn3)cn2c1N(C)c1nc(-c2ccc(F)cc2)c(C#N)s1` [Example 8, 2-((2-ethyl-6-(5-(3-hydroxyazetidin-1-carbonyl)pyrazin-2-yl)imidazo[1,2-a]pyridin-3-yl)(methyl)amino)-4-(4-fluorophenyl)thiazole-5-carbonitrile], in series [1], the IC50 was found to be 4.4 nM.

Consider `CCc1nc2ccc(-c3cnc(CC(=O)N4CC(CO)C4)cn3)cn2c1N(C)c1nc(-c2ccc(F)cc2)c(C#N)s1` [Example 12, 2-((2-ethyl-6-(5-(2-(3-(hydroxymethyl)azetidin-1-yl)-2-oxoethyl)pyrazin-2-yl)imidazo[1,2-a]pyridin-3-yl)(methyl)amino)-4-(4-fluorophenyl)thiazole-5-carbonitrile], for which the IC50 in series [1] turned out to be 19 nM.

Turning to `CCN(c1nc(-c2ccc(F)cc2)c(C#N)s1)c1c2nc(-c3cnc(N4CCC(O)CC4)nc3)ccc2nn1CC` [Example 26, 2-(ethyl(2-ethyl-5-(2-(4-hydroxypiperidin-1-yl)pyrimidin-5-yl)-2H-pyrazolo[4,3-b]pyridin-3-yl)amino)-4-(4-fluorophenyl)thiazole-5-carbonitrile], the IC50 in series [1] was 5.5 nM; in series [4], greater than 30000 nM. Moreover, the Cl_F_pred amounted to 4.17 mL/min/kg in series [3] (IV 2 mg/kg) and 25 mL/min/kg in series [3] (PO 10 mg/kg). Also, in series [3], the F came out at 16.6%. The results for the AUC(0-inf) in series [3] (IV 2 mg/kg) and in series [3] (PO 10 mg/kg) were 8170 ng·h/mL and 6720 ng·h/mL, respectively. Besides, the AUC(0-t) in series [3] (IV 2 mg/kg) was 7500 ng·h/mL; in series [3] (PO 10 mg/kg), 6230 ng·h/mL. In addition, the Cmax in series [3] (IV 2 mg/kg) turned out to be 3070 ng/mL; in series [3] (PO 10 mg/kg) it was 663 ng/mL. The values for the half-life in series [3] (IV 2 mg/kg) and in series [3] (PO 10 mg/kg) were 9.3 h and 5.8 h, respectively. Further, the Tmax in series [3] (PO 10 mg/kg) came out at 4 h. Further, the “% binuclear cells containing micronucleus” value in series [5] (3-hour administration with metabolic activation, 3 µg/ml) is given as 1.65%; in series [5] (3-hour administration with metabolic activation, 6 µg/ml) it was 1.65%; in series [5] (3-hour administration with metabolic activation, 12 µg/ml), 1.75%; in series [5] (3-hour administration with metabolic activation, 20 µg/ml) it was 1.60%; in series [5] (3-hour administration without metabolic activation, 3 µg/ml), 1.85%; in series [5] (3-hour administration without metabolic activation, 6 µg/ml) it was 1.80%. For the same molecule, the “% binuclear cells containing micronucleus” value in series [5] (3-hour administration without metabolic activation, 12 µg/ml) is 1.70%; in series [5] (3-hour administration without metabolic activation, 25 µg/ml), 1.50%; in series [5] (24-hour administration without metabolic activation, 1 µg/ml) it was 1.90%; in series [5] (24-hour administration without metabolic activation, 3 µg/ml), 1.65%; in series [5] (24-hour administration without metabolic activation, 6 µg/ml), 1.85%; in series [5] (24-hour administration without metabolic activation, 9 µg/ml) it was 1.80%. In addition, the “potential to induce micronucleus formation in CHO-WBL cells” value in series [5] (overall verdict over all administration series) is recorded as “negative”. For the same molecule, the IC50 shift at 10 min in series [2] came out at 1.09.

`CCc1nc2ccc(-c3cnc(C(C)(C)C(=O)N4CC(O)C4)cn3)cn2c1N(C)c1nc(-c2ccc(F)cc2)c(C#N)s1` [Example 9, 2-((2-ethyl-6-(5-(1-(3-hydroxyazetidin-1-yl)-2-methyl-1-oxopropan-2-yl)pyrazin-2-yl)imidazo[1,2-a]pyridin-3-yl)(methyl)amino)-4-(4-fluorophenyl)thiazole-5-carbonitrile]: the IC50 in series [1] came out at 28 nM.

With `CCc1nc2ccc(-c3ccc(CC(=O)N4CC(O)C4)nc3)cn2c1N(C)c1nc(-c2ccc(F)cc2)c(C#N)s1` [Example 2, 2-((2-ethyl-6-(6-(2-(3-hydroxyazetidin-1-yl)-2-oxoethyl)pyridin-3-yl)imidazo[1,2-a]pyridin-3-yl)(methyl)amino)-4-(4-fluorophenyl)thiazole-5-carbonitrile], the IC50 in series [1] turned out to be 29 nM.

The values above are taken from US20230295159A1, “ATX INHIBITOR, AND PREPARATION METHOD THEREFOR AND USE THEREOF” (SUZHOU ARK BIOPHARMACEUTICAL CO., LTD., priority 2020, published 2023).
